Measurements taken from ChEMBL document CHEMBL1201862, “PubChem BioAssay data set” (2004).
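Interpolation was linear, between the two tested concentrations surrounding the appropriate level; five concentrations were tested over 48 hours in 96-well plates. At the GI50, growth is halved.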 The source made the active and inactive calls. Rule as the data show it: active = GI50 up to about 1.1 µM and inactive = higher.

Assays:
Experiment in all cases: NCI anticancer screen, dose series, 48 h
786-0 = tested on: 786-0
A498 = tested on: A498
BT-549 = tested on: BT-549
CAKI-1 = tested on: CAKI-1
DU-145 = tested on: DU-145
M14 = tested on: M14
MDA-MB-231 = tested on: MDA-MB-231
NCI-H226 = tested on: NCI-H226
NCI/ADR-RES = tested on: NCI/ADR-RES
TK-10 = tested on: TK-10
HCC 2998 = tested on: HCC 2998
HOP-92 = tested on: HOP-92
MDA-MB-435 = tested on: MDA-MB-435
NCI-H522 = tested on: NCI-H522
OVCAR-4 = tested on: OVCAR-4
SK-OV-3 = tested on: SK-OV-3
Malme-3M = tested on: Malme-3M
DMS-114 = tested on: DMS-114
M19-MEL = tested on: M19-MEL

Measured: GI50

CCOC(=O)c1c(N=C(S)Nc2ccccc2)sc2c1CCN(C)C2
inactive: 786-0 > 100 µM | A498 > 100 µM | BT-549 > 100 µM | CAKI-1 > 100 µM | DU-145 > 100 µM | M14 > 100 µM | MDA-MB-231 > 100 µM | NCI-H226 > 100 µM | NCI/ADR-RES > 100 µM | TK-10 > 100 µM

CCOC(=O)NC(OCc1ccccc1)(C(=O)OC)C(F)(F)F (stereo not drawn)
inactive: BT-549 > 100 µM | CAKI-1 8.2 µM | DU-145 > 100 µM | HCC 2998 > 100 µM | HOP-92 > 100 µM | M14 > 100 µM | MDA-MB-231 > 100 µM | MDA-MB-435 > 100 µM | NCI-H522 > 100 µM | NCI/ADR-RES > 100 µM | OVCAR-4 > 100 µM | SK-OV-3 > 100 µM | TK-10 > 100 µM

OCCCC(O)(c1ccccc1)c1ccccc1
inactive: 786-0 > 100 µM | BT-549 > 100 µM | HCC 2998 > 100 µM | M14 > 100 µM | MDA-MB-435 > 100 µM | Malme-3M > 100 µM | NCI-H226 > 100 µM | NCI-H522 > 100 µM | NCI/ADR-RES > 100 µM | OVCAR-4 > 100 µM | SK-OV-3 > 100 µM | TK-10 > 100 µM

O=C(N/N=C/c1ccccc1)c1c(F)c(F)c(F)c(F)c1F
inactive: A498 > 100 µM | BT-549 > 100 µM | CAKI-1 > 100 µM | DU-145 > 100 µM | HCC 2998 > 100 µM | HOP-92 79.6 µM | M14 56.8 µM | MDA-MB-231 > 100 µM | MDA-MB-435 37.8 µM | Malme-3M > 100 µM | NCI-H226 > 100 µM | NCI-H522 23.3 µM | NCI/ADR-RES > 100 µM | OVCAR-4 > 100 µM | SK-OV-3 > 100 µM | TK-10 > 100 µM

Fc1ccc2c(c1)SC1=Nc3sc4cc(F)ccc4[n+]3CN12
inactive: 786-0 18.3 µM | A498 12.7 µM | BT-549 14.8 µM | CAKI-1 14.9 µM | DU-145 26.7 µM | HCC 2998 10.5 µM | HOP-92 17.1 µM | M14 25.8 µM | MDA-MB-231 13.9 µM | MDA-MB-435 39.6 µM | Malme-3M 18.7 µM | NCI-H226 21.3 µM | NCI-H522 12.1 µM | NCI/ADR-RES 18.2 µM | OVCAR-4 14.5 µM | SK-OV-3 22.4 µM | TK-10 18.8 µM

COC(=O)C(=O)Cc1nc2ccccc2o1
inactive: A498 > 100 µM | DMS-114 > 100 µM | HCC 2998 > 100 µM | M14 > 100 µM | M19-MEL > 100 µM | Malme-3M > 100 µM | NCI-H522 > 100 µM | OVCAR-4 > 100 µM | SK-OV-3 > 100 µM | TK-10 > 100 µM

O=C1c2ccccc2C(=O)N1/N=C1/SC(=N\c2ccccc2)/C(=N/c2ccccc2)N1c1ccccc1
inactive: 786-0 11.4 µM | A498 19.7 µM | BT-549 > 48.4 µM | CAKI-1 > 100 µM | DU-145 > 100 µM | HCC 2998 > 48.5 µM | HOP-92 > 27.9 µM | M14 77.1 µM | MDA-MB-231 > 10 µM | MDA-MB-435 > 100 µM | Malme-3M > 47.3 µM | NCI-H226 > 71.3 µM | NCI-H522 97.7 µM | NCI/ADR-RES > 100 µM | OVCAR-4 > 100 µM | TK-10 > 58.5 µM

O=C(O)CN(CC(=O)O)C(C(=O)O)c1ccccc1 (stereo not drawn)
inactive: 786-0 > 100 µM | A498 > 100 µM | BT-549 > 100 µM | CAKI-1 > 100 µM | DU-145 > 100 µM | HCC 2998 > 100 µM | HOP-92 > 100 µM | M14 > 100 µM | MDA-MB-231 > 100 µM | MDA-MB-435 > 100 µM | Malme-3M > 100 µM | NCI-H226 > 100 µM | NCI-H522 > 100 µM | NCI/ADR-RES > 100 µM | OVCAR-4 > 100 µM | SK-OV-3 > 100 µM | TK-10 > 100 µM

CC1CC/C(=C\c2ccc(Cl)cc2)C(=O)/C1=C\c1ccc(Cl)cc1 (stereo not drawn)
inactive: 786-0 34.1 µM | A498 1.63 µM | BT-549 29.9 µM | CAKI-1 20.3 µM | DU-145 49.2 µM | HOP-92 > 100 µM | M14 24 µM | MDA-MB-231 28.4 µM | MDA-MB-435 36.8 µM | SK-OV-3 > 100 µM | TK-10 29.1 µM

Cc1cc2cc3c(C)cc(=O)oc3c(C)c2o1 [TRIOXSALEN]
inactive: 786-0 > 100 µM | A498 > 100 µM | BT-549 > 100 µM | CAKI-1 > 100 µM | DU-145 > 100 µM | HCC 2998 > 100 µM | HOP-92 > 100 µM | M14 > 100 µM | MDA-MB-231 > 100 µM | MDA-MB-435 > 100 µM | Malme-3M > 100 µM | NCI-H226 > 100 µM | NCI-H522 > 100 µM | NCI/ADR-RES > 100 µM | OVCAR-4 > 100 µM

N#CCc1c(F)c(F)c(F)c(F)c1F
inactive: 786-0 > 100 µM | A498 > 100 µM | BT-549 > 100 µM | CAKI-1 > 100 µM | DU-145 > 100 µM | HCC 2998 > 100 µM | M14 > 100 µM | MDA-MB-231 > 100 µM | MDA-MB-435 > 100 µM | Malme-3M > 100 µM | NCI-H226 > 100 µM | NCI-H522 > 100 µM | NCI/ADR-RES > 100 µM | SK-OV-3 > 100 µM | TK-10 > 100 µM

CC[C@]12C=CCN3CC[C@@]4(c5cc(Br)c(OC)c([N+](=O)[O-])c5N(C)[C@H]4[C@@](O)(C(=O)OC)[C@@H]1OC(C)=O)[C@@H]32
inactive: 786-0 94.6 µM | A498 44.5 µM | BT-549 > 100 µM | CAKI-1 40.3 µM | DU-145 98.2 µM | M14 55.7 µM | MDA-MB-231 > 100 µM | MDA-MB-435 35.1 µM | Malme-3M 89.5 µM | NCI-H226 21.8 µM | NCI/ADR-RES 48.1 µM | OVCAR-4 52.8 µM | SK-OV-3 > 100 µM | TK-10 > 100 µM

COc1ccc(-c2c3c(nc4nc(SCCc5ccccc5)nc(N)c24)CCCC3)cc1OC
inactive: BT-549 > 100 µM | CAKI-1 > 100 µM | DU-145 > 100 µM | M14 > 100 µM | MDA-MB-231 > 100 µM | MDA-MB-435 > 100 µM | Malme-3M > 100 µM | NCI/ADR-RES > 100 µM | OVCAR-4 75.7 µM | SK-OV-3 > 100 µM | TK-10 > 100 µM

CCOC(=O)c1cc(C2CCN(Cc3ccccc3)C2=S)c(C(=O)C=[N+]=[N-])[nH]1 (stereo not drawn)
inactive: 786-0 28.1 µM | A498 77.4 µM | BT-549 26.9 µM | CAKI-1 68.5 µM | DU-145 33.4 µM | HCC 2998 49.7 µM | HOP-92 21.3 µM | M14 20.1 µM | MDA-MB-231 33.1 µM | MDA-MB-435 40.1 µM | Malme-3M 28.7 µM | NCI-H522 20.7 µM | NCI/ADR-RES 24.5 µM | OVCAR-4 54.7 µM | SK-OV-3 > 100 µM | TK-10 35.9 µM
